Where two headings read alike, the source gives them in different places.
Experiment: Solubility of SAM compounds in water, visual observation after standing at 25° C. for one day
Format: physicochemical
Settings: for water solubility (summary in words): conclusion from Table 1; for solubility at 1 day: water, 25 °C, thermodynamic from solid, 25° C., one day, visual observation, read-out: Solubility (solvent (H2O) allowed to stand at 25° C. for one day)
Protocol: The mixtures were allowed to stand at 25° C. for one day, followed by observation. […] The symbol “x” indicates a resultant in which precipitation and sedimentation were observed, the symbol “Δ” indicates a resultant in which opacity was observed, and the symbol “◯” indicates a resultant having an achromatic and transparent color. • 16-Hydroxy-1-hexadecanethiol (Frontier Scientific) • 11-Hydroxy-1-undecanethiol (Aldrich) • 8-Hydroxy-1-octanethiol (Aldrich) • 6-Hydroxy-1-hexanethiol (Aldrich) • 11-Amino-1-undecanethiol, hydrochloride (Dojindo Laboratories) • 8-Amino-1-octanethiol, hydrochloride (Dojindo Laboratories) • 6-Amino-1-hexanethiol, hydrochloride (Dojindo Laboratories)

SMILES	water solubility (summary in words)	solubility at 1 day (SAM concentration 0.1 mM)	solubility at 1 day (SAM concentration 1 mM)	solubility at 1 day (SAM concentration 5 mM)	solubility at 1 day (SAM concentration 20 mM)
OCCCCCCS [6-Hydroxy-1-hexanethiol]	good water solubility	> 0.1 mM	> 1 mM	> 5 mM	< 20 mM
OCCCCCCCCS [8-Hydroxy-1-octanethiol]	good water solubility	> 0.1 mM	> 1 mM	< 5 mM	< 20 mM
OCCCCCCCCCCCCCCCCS [16-Hydroxy-1-hexadecanethiol]		< 0.1 mM	< 1 mM	< 5 mM	< 20 mM

The remaining lines, values ahead:

water solubility (summary in words)	solubility at 1 day (SAM concentration 0.1 mM)	solubility at 1 day (SAM concentration 1 mM)	solubility at 1 day (SAM concentration 5 mM)	solubility at 1 day (SAM concentration 20 mM)	SMILES
		< 1 mM	< 5 mM	< 20 mM	Cl.NCCCCCCCCCCCS [11-Amino-1-undecanethiol, hydrochloride]
good water solubility	> 0.1 mM	> 1 mM	> 5 mM	> 20 mM	Cl.NCCCCCCCCS [8-Amino-1-octanethiol, hydrochloride]
	< 0.1 mM	< 1 mM	< 5 mM	< 20 mM	OCCCCCCCCCCCS [11-Hydroxy-1-undecanethiol]
good water solubility	> 0.1 mM	> 1 mM	> 5 mM	> 20 mM	Cl.NCCCCCCS [6-Amino-1-hexanethiol, hydrochloride]

From patent US7563623B2, “Biosensor” (FUJIFILM Corporation, priority 2006, dated 2009)
